In the NIST ThermoML archive (doi:10.1016/j.jct.2008.01.003):
Numbers after ± are expanded uncertainties.

Assay: mn = molality of the nth substance listed, in mol/kg
Details: 101 kPa, Liquid

CCCCCCn1cc[n+](C)c1.[Br-] [3-hexyl-1-methyl-1H-imidazolium bromide] + O
Details | mass density, 283.15 K [kg/m3] | mass density, 288.15 K [kg/m3] | mass density, 293.15 K [kg/m3] | mass density, 298.15 K [kg/m3] | mass density, 303.15 K [kg/m3] | speed of sound, 283.15 K [m/s] | speed of sound, 288.15 K [m/s] | speed of sound, 293.15 K [m/s] | speed of sound, 298.15 K [m/s] | speed of sound, 303.15 K [m/s]
m1 = 0.0042 | 999.919 ± 0.48 | 999.312 ± 0.49 | 998.411 ± 0.49 | 997.246 ± 0.5 | 995.843 ± 0.51 | 1448.7 ± 2.9 | 1467 ± 2.9 | 1483.2 ± 2.9 | 1497.5 ± 2.9 | 1509.8 ± 3
m1 = 0.0048 | 999.941 ± 0.48 | 999.334 ± 0.49 | 998.432 ± 0.49 | 997.266 ± 0.5 | 995.864 ± 0.51 | 1448.8 ± 2.9 | 1467.1 ± 2.9 | 1483.2 ± 2.9 | 1497.5 ± 2.9 | 1509.8 ± 3
m1 = 0.0067 | 1000.03 ± 0.48 | 999.423 ± 0.49 | 998.518 ± 0.49 | 997.351 ± 0.5 | 995.948 ± 0.51 | 1449.2 ± 2.9 | 1467.4 ± 2.9 | 1483.5 ± 2.9 | 1497.7 ± 2.9 | 1510.1 ± 3
m1 = 0.0081 | 1000.1 ± 0.49 | 999.485 ± 0.49 | 998.579 ± 0.49 | 997.413 ± 0.5 | 996.006 ± 0.51 | 1449.3 ± 2.9 | 1467.4 ± 2.9 | 1483.6 ± 2.9 | 1497.7 ± 2.9 | 1510.1 ± 3
m1 = 0.0139 | 1000.38 ± 0.49 | 999.762 ± 0.49 | 998.85 ± 0.49 | 997.679 ± 0.5 | 996.267 ± 0.51 | 1450.3 ± 2.9 | 1468.4 ± 2.9 | 1484.5 ± 2.9 | 1498.6 ± 3 | 1510.8 ± 3
m1 = 0.0295 | 1001.15 ± 0.49 | 1000.52 ± 0.49 | 999.592 ± 0.49 | 998.405 ± 0.49 | 996.983 ± 0.5 | 1452.9 ± 2.9 | 1470.8 ± 2.9 | 1486.7 ± 2.9 | 1500.5 ± 3 | 1512.6 ± 3
m1 = 0.0369 | 1001.52 ± 0.49 | 1000.88 ± 0.49 | 999.946 ± 0.49 | 998.754 ± 0.49 | 997.324 ± 0.5 | 1453.3 ± 2.9 | 1471.1 ± 2.9 | 1486.8 ± 2.9 | 1500.6 ± 3 | 1512.5 ± 3
m1 = 0.0487 | 1002.1 ± 0.5 | 1001.45 ± 0.49 | 1000.5 ± 0.49 | 999.3 ± 0.49 | 997.863 ± 0.5 | 1455.3 ± 2.9 | 1473 ± 2.9 | 1488.5 ± 2.9 | 1502.2 ± 3 | 1514 ± 3
m1 = 0.064 | 1002.84 ± 0.5 | 1002.17 ± 0.5 | 1001.21 ± 0.49 | 999.994 ± 0.49 | 998.545 ± 0.49 | 1457.9 ± 2.9 | 1475.3 ± 2.9 | 1490.7 ± 2.9 | 1504.1 ± 3 | 1515.7 ± 3
m1 = 0.073 | 1003.27 ± 0.51 | 1002.59 ± 0.5 | 1001.62 ± 0.5 | 1000.4 ± 0.49 | 998.942 ± 0.49 | 1459.4 ± 2.9 | 1476.6 ± 2.9 | 1491.9 ± 2.9 | 1505.2 ± 3 | 1516.7 ± 3
m1 = 0.094 | 1004.29 ± 0.51 | 1003.59 ± 0.51 | 1002.6 ± 0.5 | 1001.35 ± 0.5 | 999.878 ± 0.49 | 1462.8 ± 2.9 | 1479.8 ± 2.9 | 1494.8 ± 2.9 | 1507.8 ± 3 | 1519.2 ± 3
m1 = 0.1183 | 1005.45 ± 0.52 | 1004.72 ± 0.52 | 1003.71 ± 0.51 | 1002.44 ± 0.5 | 1000.95 ± 0.49 | 1466.9 ± 2.9 | 1483.5 ± 2.9 | 1498.2 ± 3 | 1510.9 ± 3 | 1522 ± 3
m1 = 0.1423 | 1006.6 ± 0.53 | 1005.85 ± 0.52 | 1004.81 ± 0.52 | 1003.53 ± 0.51 | 1002.01 ± 0.5 | 1470.9 ± 2.9 | 1487.1 ± 2.9 | 1501.4 ± 3 | 1513.9 ± 3 | 1524.7 ± 3
m1 = 0.1639 | 1007.6 ± 0.54 | 1006.82 ± 0.53 | 1005.77 ± 0.53 | 1004.47 ± 0.52 | 1002.94 ± 0.51 | 1474 ± 2.9 | 1490 ± 2.9 | 1504.1 ± 3 | 1516.3 ± 3 | 1526.9 ± 3
m1 = 0.2206 | 1010.25 ± 0.55 | 1009.42 ± 0.55 | 1008.31 ± 0.54 | 1006.95 ± 0.53 | 1005.38 ± 0.52 | 1482.7 ± 2.9 | 1497.9 ± 3 | 1511.2 ± 3 | 1522.8 ± 3 | 1532.7 ± 3
m1 = 0.2581 | 1011.96 ± 0.57 | 1011.09 ± 0.56 | 1009.94 ± 0.55 | 1008.55 ± 0.55 | 1006.95 ± 0.54 | 1488.1 ± 2.9 | 1502.7 ± 3 | 1515.6 ± 3 | 1526.7 ± 3 | 1536.2 ± 3
m1 = 0.3034 | 1014.04 ± 0.58 | 1013.11 ± 0.57 | 1011.93 ± 0.57 | 1010.5 ± 0.56 | 1008.86 ± 0.55 | 1494.6 ± 3 | 1508.7 ± 3 | 1521 ± 3 | 1531.6 ± 3 | 1540.7 ± 3
m1 = 0.3543 | 1016.3 ± 0.6 | 1015.32 ± 0.59 | 1014.08 ± 0.58 | 1012.61 ± 0.57 | 1010.93 ± 0.56 | 1501.6 ± 3 | 1515 ± 3 | 1526.7 ± 3 | 1536.8 ± 3 | 1545.3 ± 3
m1 = 0.3874 | 1017.82 ± 0.61 | 1016.8 ± 0.6 | 1015.53 ± 0.59 | 1014.03 ± 0.58 | 1012.32 ± 0.57 | 1506.1 ± 3 | 1519.1 ± 3 | 1530.4 ± 3 | 1540.1 ± 3 | 1548.2 ± 3
m1 = 0.4492 | 1020.54 ± 0.63 | 1019.46 ± 0.62 | 1018.13 ± 0.61 | 1016.57 ± 0.6 | 1014.81 ± 0.59 | 1513.7 ± 3 | 1525.9 ± 3 | 1536.4 ± 3 | 1545.4 ± 3 | 1552.9 ± 3
m1 = 0.6269 | 1028.05 ± 0.69 | 1026.78 ± 0.68 | 1025.28 ± 0.67 | 1023.56 ± 0.66 | 1021.66 ± 0.65 | 1535.2 ± 3 | 1545.3 ± 3 | 1553.8 ± 3 | 1561 ± 3.1 | 1566.8 ± 3.1
m1 = 0.8614 | 1037.26 ± 0.76 | 1035.74 ± 0.75 | 1034.03 ± 0.74 | 1032.12 ± 0.73 | 1030.03 ± 0.71 | 1557.7 ± 3.1 | 1565.1 ± 3.1 | 1571.3 ± 3.1 | 1576.3 ± 3.1 | 1580.2 ± 3.1
m1 = 1.001 | 1042.28 ± 0.8 | 1040.64 ± 0.79 | 1038.8 ± 0.78 | 1036.78 ± 0.77 | 1034.6 ± 0.75 | 1568.5 ± 3.1 | 1574.6 ± 3.1 | 1579.6 ± 3.1 | 1583.5 ± 3.1 | 1586.5 ± 3.1
m1 = 1.321 | 1053.01 ± 0.89 | 1051.1 ± 0.88 | 1049.03 ± 0.87 | 1046.8 ± 0.85 | 1044.42 ± 0.84 | 1586.3 ± 3.1 | 1590.3 ± 3.1 | 1593.4 ± 3.1 | 1595.6 ± 3.1 | 1596.9 ± 3.1
m1 = 1.739 | 1065.23 ± 1 | 1063.06 ± 0.99 | 1060.74 ± 0.98 | 1058.31 ± 0.96 | 1055.74 ± 0.95 | 1600 ± 3.2 | 1602.5 ± 3.2 | 1604.1 ± 3.2 | 1604.8 ± 3.2 | 1604.7 ± 3.2
m1 = 2.087 | 1074.16 ± 1.1 | 1071.82 ± 1.1 | 1069.36 ± 1.1 | 1066.78 ± 1 | 1064.09 ± 1 | 1607.4 ± 3.2 | 1608.9 ± 3.2 | 1609.6 ± 3.2 | 1609.4 ± 3.2 | 1608.4 ± 3.2
